For series [1], the system named is vitreous of a Male New Zealand white rabbit. Put plainly: Intravitreal injection of micronized axitinib suspension, histology after 1 month. Type of series: in vivo. Conditions: for Inflammation around the injected material / Inflammation within the vitreous Chamber: semi-quantitative scale 0-5. As for the experimental part:
50 μL of the 2% axitinib suspension was then drawn into a 100 μL luer lock Hamilton syringe using a 21G 1.5″ needle. The needle was swapped for a fresh 27G ½″ TW needle (Nipro). The 50 μL suspension was then injected at the 6 o'clock position within the vitreous of a Male New Zealand white rabbit. After 1 month, eyes were explanted and prepared for histology.
(§1) Two eyes were fixed (Davidson's), blocked, sectioned, mounted and stained for microscopical examination by a board certified veterinary pathologist. Eyes were sectioned according to the following scheme: A suture had been placed at the 12 o'clock position for orientation at harvest. Typically eyes were trimmed in half in the plane from 12 o'clock to 6 o'clock through the lens and optic nerve along the midline. This captures as many optic structures in one plane as is possible. The trimmed eyes were examined grossly and abnormalities noted. Each half of the globe trimmed was embedded in its own cassette. Cassette A is always the nasal half of the eye, and cassette B is always the temporal half of the eye. For each block 6 hematoxylin and eosin (H&E)-stained slides were prepared that were separated by 1000 microns (1 mm). Each slide contained 2 serial sections of eye on it. All slides were evaluated by a board-certified veterinary pathologist at Charter Preclinical Services. Tissues were scored on a semi-quantitative scale from 0-5 for any abnormalities.
Eyes were scored in several categories for signs of inflammation or other adverse findings. Inflammation scores were as follows:
1—Rare foci of change; minimal
2—Mild diffuse change or more pronounced focal change
3—Moderate diffuse change
5 μL of the 4% Axitinib suspension was then drawn into a 100 μL luer lock Hamilton syringe using a 21G 1.5″ needle. The needle was swapped for a fresh 27G ½″ TW needle (Nipro). The 50 μL suspension was then injected at the 6 o'clock position within the vitreous of a Male New Zealand white rabbit. After 1 month, eyes were explanted and prepared for histology.
as §1, with “(Davidson's fixative solution),” for “(Davidson's),”
Eyes were scored in several categories for signs of inflammation or other adverse findings as described above.
50 μL of the 8% axitinib suspension was then drawn into a 100 μL luer lock Hamilton syringe using a 21G 1.5″ needle. The needle was swapped for a fresh 27G ½″ TW Nipro needle. The 50 μL suspension was then injected at the 6 o'clock position within the vitreous of both eyes in Male New Zealand white rabbit. After 1 month, eyes were explanted and prepared for histology.

The conditions of series [2]: experimental water solubility when available in the scientific literature; cited from earlier work.
Series [3] can be described thus: Steroid solubility studies in dissolution media (PBS, pH 6.3), Example 10. Type of series: physicochemical. As to conditions: for solubility at 68 h: pH 6.3, aqueous buffer, thermodynamic from solid. The protocol: Solubility of the steroid candidates was assessed in dissolution media (PBS, pH 6.3) at ambient temperatures for 68 hours. UV detection of soluble steroid was determined relative to a standard curve.

The conditions of series [4]: statement in words; cited from earlier work.

≈ marks a conversion by molar mass, not a printed value. Where a name gives a salt, the structure may show the parent alone.

We go through 29 molecules from patent US11369591B2, “Drug delivery from hydrogels” (Incept, LLC, priority 2015, dated 2022).

Consider `CNC(=O)c1ccccc1Sc1ccc2c(/C=C/c3ccccn3)n[nH]c2c1` [Axitinib], for which, in series [1] (100 μg), the “Other adverse findings (retina, sclera, lens, etc.)” value (“Other adverse findings” below) is “none”; the “Inflammation around the injected material” value stood at 0.04±0.29; the “Inflammation within the vitreous Chamber” value was 0.0±0.0. Also, in series [1] (200 μg), the “Other adverse findings” value is “none”; the “Inflammation around the injected material” value is 0.08±0.37; the “Inflammation within the vitreous Chamber” value came out at 0.14±0.35. Moreover, in series [1] (400 ug, both eyes), the “Other adverse findings” value is listed as “none”; the “Inflammation around the injected material” value was found to be 0.14±0.35; the “Inflammation within the vitreous Chamber” value is recorded as 0.14±0.35. Besides, in series [2], the “Experimental Solubility” value was 1 µg/mL.
Consider `CN1CCCC(n2nc(Cc3ccc(Cl)cc3)c3ccccc3c2=O)CC1` (centres unmarked) [Azelastine Base], for which the “Experimental Solubility” value in series [2] was 50 µg/mL.
Turning to `CN1CCCC(n2nc(Cc3ccc(Cl)cc3)c3ccccc3c2=O)CC1.O=C(O)c1cc2ccccc2c(Cc2c(O)c(C(=O)O)cc3ccccc23)c1O` [Azelastine Embonate], in series [2], the “Experimental Solubility” value is 15 µg/mL.
Turning to `CC[C@H]1OC(=O)[C@H](C)[C@@H](O[C@H]2C[C@@](C)(OC)[C@@H](O)[C@H](C)O2)[C@H](C)[C@@H](O[C@@H]2O[C@H](C)C[C@H](N(C)C)[C@H]2O)[C@](C)(O)C[C@@H](C)CN(C)[C@H](C)[C@@H](O)[C@]1(C)O` [Azithromycin], the “Experimental Solubility” value in series [2] is 69 µg/mL.
As to `N[C@@H]1CCCCN(c2c(F)cc3c(=O)c(C(=O)O)cn(C4CC4)c3c2Cl)C1` [Besifloxacin Base], in series [2], the “Experimental Solubility” value is 90 µg/mL.
As for `C[C@H]1C[C@H]2[C@@H]3CCC4=CC(=O)C=C[C@]4(C)[C@@]3(F)[C@@H](O)C[C@]2(C)[C@@]1(O)C(=O)COP(=O)([O-])[O-].[Na+].[Na+]` [Betamethasone Sodium Phosphate], the “Max Solubility in PBS, pH 6.3” value in series [3] (PBS pH 6.3, ambient temperatures, 68 hours, UV detection) is on record as > 100,000 μg/mL. Moreover, in series [3] (printed beside the Example 10 value), the “Solubility in water, descriptive” value is “freely soluble”. Moreover, the “Experimental Solubility” value in series [2] is 67 µg/mL.
For the molecule `Nc1c(CC(=O)O)cccc1C(=O)c1ccc(Br)cc1` [Bromfenac], the “Experimental Solubility” value in series [2] is 53,000 μg/mL.
By solubility is commonly meant the dissolved amount per volume that the medium holds. Read a high solubility as a readily soluble substance. Regarding `CCCC1O[C@@H]2C[C@H]3[C@@H]4CCC5=CC(=O)C=C[C@]5(C)[C@H]4[C@@H](O)C[C@]3(C)[C@]2(C(=O)CO)O1` (some centres unmarked) [Budesonide], the solubility at 68 h in series [3] came to 30 µg/mL (≈ 69.7 µM). Also, the “Experimental Solubility” value in series [2] was 24 µg/mL.
For the molecule `C[C@@H]1C[C@H]2[C@@H]3CCC4=CC(=O)C=C[C@]4(C)[C@@]3(F)[C@@H](O)C[C@]2(C)[C@@]1(O)C(=O)CO` [Dexamethasone alcohol], in series [2], the “Experimental Solubility” value is 89 µg/mL.
Take `O=C(O)Cc1ccccc1Nc1c(Cl)cccc1Cl` [Diclofenac]: the “Experimental Solubility” value in series [2] is 600 µg/mL.
Regarding `CO[C@H]1C[C@@H]2CC[C@@H](C)[C@@](O)(O2)C(=O)C(=O)N2CCCC[C@H]2C(=O)O[C@H]([C@H](C)C[C@@H]2CC[C@@H](OCCO)[C@H](OC)C2)CC(=O)[C@H](C)/C=C(\C)[C@@H](O)[C@@H](OC)C(=O)[C@H](C)C[C@H](C)/C=C/C=C/C=C/1C` [Everolimus], the “Experimental Solubility” value in series [2] is 10 µg/mL.
With `CC1(C)O[C@@H]2C[C@H]3[C@@H]4C[C@H](F)C5=CC(=O)C=C[C@]5(C)[C@H]4[C@@H](O)C[C@]3(C)[C@]2(C(=O)CO)O1` [Flunisolide, Anhydrous, USP, Flunisolide], the solubility at 68 h in series [3] worked out at 90 µg/mL (≈ 207 µM).
`CC(C(=O)O)c1ccc(-c2ccccc2)c(F)c1` (centres unmarked) [Flurbiprofen Sodium]: the “Experimental Solubility” value in series [2] was 61 µg/mL.
As to `CCC(=O)O[C@]1(C(=O)SCF)[C@H](C)C[C@H]2[C@@H]3C[C@H](F)C4=CC(=O)C=C[C@]4(C)[C@@]3(F)[C@@H](O)C[C@@]21C` [Fluticasone Propionate], the “Experimental Solubility” value in series [2] is 1 µg/mL.
`COc1c(N2CCNC(C)C2)c(F)cc2c(=O)c(C(=O)O)cn(C3CC3)c12` (centres unmarked) [Gatifloxacin]: in series [2], the “Experimental Solubility” value is on record as 60,000 μg/mL.
With `CN1CCC(=C2c3ccccc3CC(=O)c3sccc32)CC1` [Ketotifen base], in series [2], the “Experimental Solubility” value is 15 µg/mL.
For the molecule `CN1CCC(=C2c3ccccc3CC(=O)c3sccc32)CC1` [Ketotifen fumarate], the “Experimental Solubility” value in series [2] was 10,000 μg/mL.
Take `CC(C)OC(=O)CCC/C=C\C[C@@H]1[C@@H](CC[C@@H](O)CCc2ccccc2)[C@H](O)C[C@@H]1O` [Latanoprost]: the “solubility in aqueous solutions” value in series [4] is on record as “relatively low solubility”.
For the molecule `CCOC(=O)O[C@]1(C(=O)OCCl)CC[C@H]2[C@@H]3CCC4=CC(=O)C=C[C@]4(C)[C@H]3[C@@H](O)C[C@@]21C` [Loteprednol etabonate], the “Experimental Solubility” value in series [2] was 5 µg/mL.
Regarding `C[C@@H]1C[C@H]2[C@@H]3CCC4=CC(=O)C=C[C@]4(C)[C@@]3(Cl)[C@@H](O)C[C@]2(C)[C@@]1(OC(=O)c1ccco1)C(=O)CCl` [Mometasone furoate], the “Experimental Solubility” value in series [2] was 20 µg/mL.
For the molecule `CO[C@H]1C[C@@H]2CC[C@@H](C)[C@@](O)(O2)C(=O)C(=O)N2CCCC[C@H]2C(=O)O[C@H]([C@H](C)C[C@@H]2CC[C@@H](O)[C@H](OC)C2)CC(=O)[C@H](C)/C=C(\C)[C@@H](O)[C@@H](OC)C(=O)[C@H](C)C[C@H](C)/C=C/C=C/C=C/1C` [Sirolimus], the “Experimental Solubility” value in series [2] was less than 100 µg/mL.
Regarding `CCN(CC)CCNC(=O)c1c(C)[nH]c(/C=C2\C(=O)Nc3ccc(F)cc32)c1C` [Sunitinib Malate], the “Experimental Solubility” value in series [2] was 25,000 μg/mL.
As for `C=CC[C@@H]1/C=C(\C)C[C@H](C)C[C@H](OC)[C@H]2O[C@@](O)(C(=O)C(=O)N3CCCC[C@H]3C(=O)O[C@H](/C(C)=C/[C@@H]3CC[C@@H](O)[C@H](OC)C3)[C@H](C)[C@@H](O)CC1=O)[C@H](C)C[C@@H]2OC` [Tacrolimus], in series [2], the “Experimental Solubility” value is 8 µg/mL.
Take `CC(C)(C)NC[C@H](O)COc1nsnc1N1CCOCC1` [Timolol Maleate]: the “Experimental Solubility” value in series [2] is 2,800 μg/mL.
Consider `CC(C)OC(=O)CCC/C=C\C[C@@H]1[C@@H](/C=C/[C@@H](O)COc2cccc(C(F)(F)F)c2)[C@H](O)C[C@@H]1O` [Travoprost], for which the “Experimental Solubility” value in series [2] is 44 µg/mL.
In turn, `CC1(C)O[C@@H]2C[C@H]3[C@@H]4CCC5=CC(=O)C=C[C@]5(C)[C@@]4(F)[C@@H](O)C[C@]3(C)[C@]2(C(=O)CO)O1` [Triamcinolone Acetonide] yielded a solubility at 68 h in series [3] of 20 µg/mL (≈ 46 µM).
For the molecule `O=c1[nH]c(=O)n([C@H]2C[C@H](O)[C@@H](CO)O2)cc1C(F)(F)F` [Trifluridine], in series [2], the “Experimental Solubility” value was 1,500 μg/mL.
For the molecule `COc1cc2c(Nc3ccc(Br)cc3F)ncnc2cc1OCC1CCN(C)CC1` [Vandetanib (ZD6474), Vandetanib], in series [2], the “Experimental Solubility” value is 8 µg/mL.
Aflibercept: the “Experimental Solubility” value in series [2] is recorded as >100,000 μg/mL.
